Reference: PMC11990158, “Synthetic Epoxyeicosatrienoic Acid Mimics Protect Mesangial Cells from Sorafenib-Induced Cell Death” (Molecules, 2025)
Read-outs that look alike come from different tables or passages of the source.

Legend:
[1] = biological target: T1, human soluble epoxide hydrolase (sEH) (Homo sapiens, UniProt P34913); assay: Human sEH inhibition, fluorescent assay (MNPC substrate); type: biochemical; conditions: for IC50: recombinant purified human sEH, 5 min preincubation at 37 °C, MNPC 5 µM, read-out: HsEH IC50
T1 sequence (P34913 1-555): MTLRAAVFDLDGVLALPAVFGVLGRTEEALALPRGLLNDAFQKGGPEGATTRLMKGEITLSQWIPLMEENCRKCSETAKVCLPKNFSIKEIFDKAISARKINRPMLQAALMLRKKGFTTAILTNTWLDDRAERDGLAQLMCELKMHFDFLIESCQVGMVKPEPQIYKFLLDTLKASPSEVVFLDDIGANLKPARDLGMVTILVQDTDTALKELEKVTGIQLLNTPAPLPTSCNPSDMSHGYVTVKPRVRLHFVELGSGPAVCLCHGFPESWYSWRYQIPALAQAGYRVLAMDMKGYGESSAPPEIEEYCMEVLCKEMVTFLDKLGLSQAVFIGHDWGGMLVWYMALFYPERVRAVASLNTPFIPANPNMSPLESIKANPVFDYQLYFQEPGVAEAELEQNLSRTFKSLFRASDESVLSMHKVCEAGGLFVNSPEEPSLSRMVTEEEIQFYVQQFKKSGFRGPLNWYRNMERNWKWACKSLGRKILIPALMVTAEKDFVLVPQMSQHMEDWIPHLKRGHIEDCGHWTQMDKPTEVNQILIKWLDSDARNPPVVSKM
Protocol: The inhibition potency of the compounds against the recombinant purified human and mouse sEH and human mEH were measured using sensitive fluorescent assays. The enzymes were diluted to the proper buffer and aliquoted in black 96-well plates. The enzymes were incubated with the inhibitors (0.4 < [I] < 50,000 nM) for 5 min at 37 °C before the introduction of the reporting substrate. For the sEH, nonfluorescent cyano(6-methoxy-naphthalen-2-yl)methyl trans-[(3-phenyloxiran-2-yl)methyl] carbonate MNPC was used as the reporting substrate at a final concentration of 5 μM [51]. For the mEH, cyano(6-methoxy-naphthalen-2-yl)methyl glycidyl carbonate (MNGC) was used at a final concentration of 5 µM. The formation of the product (6-methoxynaphthaldehyde) was measured ([…]) every 30 s for 10 min by a Molecular Device M-2 plate reader. All measurements were performed in triplicate. The inhibitory potency (IC50) was calculated by regression of at least four data points on both sides of the 50% mark.

[2] = system: human renal mesangial cells (HRMCs); assay: WST-8 cell viability assay, protection against sorafenib-induced cell death; type: cell-based; conditions: sorafenib 10 µM alone, 48 h
Protocol: Human renal mesangial cells (4200, ScienCell, Carlsbad, CA, USA) were cultured at 37 °C (in 5% CO2) in RPMI 1640 medium (Gibco™, LS11875093) containing 10% FBS, 100 U/mL of penicillin, and 0.1 mg/mL of streptomycin. The cells were subculture following the protocol of the manufacturer.
WST assay: To evaluate the effect of 8,9-EET analogs and sorafenib on the viability of human renal mesangial cells, a 96-well TPP plate is seeded with cells, which are then allowed to adhere. Over the course of 24 h, they undergo serum starvation before being subject to one of five treatments: Control (no treatment), Sorafenib (10 µM), Sorafenib plus 8,9-EET analogs (1 µM, 3 µM or 10 µM). After 48 h incubation, a WST assay used to gain information on cell survival; we added 10 μL WST reagent per well and incubated for 2 h. WST-8 tetrazolium salt is reduced by cellular dehydrogenases to an orange formazan product that is soluble in tissue culture medium. The amount of formazan produced is directly proportional to the number of living cells and is measured by absorbance at 460 nm. The absorbance at 460 nm is determined using a Synergy 4 Microplate Reader.

[3] = biological target: T1, human soluble epoxide hydrolase (sEH); conditions: cited from earlier work

SMILES	IC50 [1]	other results
CCCCCCCC/C=C\CNC(=O)NCCCCOCC(=O)O [7e, (Z)-2-(4-(3-(undec-2-en-1-yl)ureido)butoxy)acetic Acid]	1.6 µM	
CCCCCCCCCNC(=O)C(=O)NCCCCCCC(=O)O [8c, 7-(2-(Nonylamino)-2-oxoacetamido)heptanoic Acid]	64 µM	
CNC(=O)c1cc(Oc2ccc(NC(=O)Nc3ccc(Cl)c(C(F)(F)F)c3)cc2)ccn1 [Sorafenib]		cells dying on sorafenib exposure [2]: around 90%; sEH inhibition (in words) [3]: potent sEH inhibitor
CCCCCCCC/C=C\CNC(=O)C(=O)NCCCCCC(=O)O [8e, (Z)-6-(2-Oxo-2-(undec-2-en-1-ylamino)acetamido)hexanoic Acid]	19 µM	
CCCCCCCCCCNC(=O)C(=O)NCCCCCCC(=O)O [8d, 7-(2-(Decylamino)-2-oxoacetamido)heptanoic Acid]	49 µM	
CCCCCCCCCCNC(=O)C(=O)NCCCCCC(=O)O [8a, 6-(2-(Decylamino)-2-oxoacetamido)hexanoic Acid]	51 µM	
CCCCCCCCCCCNC(=O)NCCCCOCC(=O)O [7b, 2-(4-(3-Undecylureido)butoxy)acetic Acid]	1.8 µM	
CCCCCCCC/C=C\CNC(=O)NC/C=C\COCC(=O)O [7f, 2-(((Z)-4-(3-((Z)-undec-2-en-1-yl)ureido)but-2-en-1-yl)oxy)acetic Acid]	2.6 µM	
CCCCCCCCCCCNC(=O)C(=O)NCCCCCC(=O)O [8b, 6-(2-Oxo-2-(undecylamino)acetamido)hexanoic Acid]	> 100 µM	sEH inhibition (in words) [1]: insignificant inhibitor of sEH
CCCCCCCCCCNC(=O)NCCCCOCC(=O)O [7a, 2-(4-(3-Decylureido)butoxy)acetic Acid]	0.83 µM	
CCCCCCCCCCNC(=O)NC/C=C\COCC(=O)O [7c, (Z)-2-((4-(3-Decylureido)but-2-en-1-yl)oxy)acetic Acid]	2.1 µM	

Continued, in another order:

IC50 [1]	SMILES	other results
0.9 µM	CCCCCCCCCCCNC(=O)CCCCCCCC(=O)O [10c, 9-Oxo-9-(undecylamino)nonanoic Acid]	
0.82 µM	CCCCCCCC/C=C\CNC(=O)CCCCCCCC(=O)O [10d, (Z)-9-Oxo-9-(undec-2-en-1-ylamino)nonanoic Acid]	
2.7 µM	CCCCCCCCCCCCNC(=O)CCCCCCC(=O)O [10b, 8-(Dodecylamino)-8-oxooctanoic Acid]	
2.3 µM	CCCCCCCCCCCC(=O)NCCCCCCC(=O)O [9c, 7-Dodecanamidoheptanoic Acid]	
9.6 µM	CCCCCCCCCCCC(=O)NCCCCCC(=O)O [9a, 6-Dodecanamidohexanoic Acid]	
6.4 µM	CCCCCCCCCCCCC(=O)NCCCCCC(=O)O [9b, 6-Tridecanamidohexanoic Acid]	
3.5 µM	CCCCCCCCCCCNC(=O)CCCCCCC(=O)O [10a, 8-Oxo-8-(undecylamino)octanoic Acid]	
2.4 µM	CCCCCCCCCCCCC(=O)NCCCCCCC(=O)O [9d, 7-Tridecanamidoheptanoic Acid]	
